The structures appear in SMILES notation. Where a SMILES comes first, the peptide text is derived from it. [ ]: non-standard residue; d: D form. The star is where a group is joined. ξ: configuration not given here. Hexanoyl(4ξ-Me) = CCC(C)CCC(=O)*; dOrn = NCCC[C@@H](N)C(=O)O; Orn = NCCC[C@H](N)C(=O)O

This experiment deals with E. coli ATCC 25922. The format is cell-based, Escherichia coli. The conditions noted are these: (Supplement 2). The protocol: Linear laterocidine (LL-OH, 4) and linear brevicidine (LB-OH, 5) were first synthesized by Fmoc SPPS, starting from 2-chlorotrityl (2-CT) chloride resin. The antibacterial activity of these peptides was then compared to brevicidine (1) and laterocidine (2) using minimum inhibitory concentration (MIC)/microbroth dilution assays (Table 1). The MICs of all peptides were determined against a panel of Gram-negative and Gram-positive ESKAPE pathogens. Additionally, a strain of E. coli carrying the mcr-1 gene was included in the panel. The mcr-1 gene is a transferrable plasmid that confers resistance against colistin, a last-resort antibiotic for Gram-negative infections, by reducing the overall negative charge of lipopolysaccharide (LPS) through modification of lipid A with phosphoethanolamine. The propensity for cationic antibiotics to bind to the cell membrane is therefore reduced. This gene has been observed in more than 27 bacterial species over six continents.[26] The spread of the mcr-1 gene could render colistin ineffectual; therefore, novel antibacterials are urgently required to overcome this form of resistance.
All minimum inhibitory concentrations (MICs) were determined according to Clinical and Laboratory Standards Institute (CLSI) guidelines. Blood agar plates were inoculated with glycerol stocks of E. coli ATCC 25922, K. pneumoniae ATCC 13883, A. baumannii ATCC 17961, P. aeruginosa PAO1, and S. aureus USA300. The inoculated agar plates were then incubated for 16 h at 37 °C. Individually grown colonies were subsequently used to inoculate 5 mL aliquots of TSB that were then incubated at 37 °C with shaking at 220 rpm. E. coli 25922 MCR-1 glycerol stock was used to inoculate 5 mL of TSB supplemented with kanamycin that was then incubated for 16 h at 37 °C with shaking at 220 rpm. The next day the culture was diluted 100-fold in TSB supplemented with kanamycin and incubated at 37 °C with shaking at 220 rpm. In parallel, the lipopeptide antibiotics DMSO stocks to be assessed were serially diluted with MHB in polypropylene 96-well plates (50 μL in each well). Colistin sulfate stocks were dissolved in water before being diluted with MHB. Aliquots of the inoculated TSB were incubated until an OD600 of around 0.5 was reached. The bacterial suspensions were then diluted with MHB (2 × 10^5 CFU/mL) and added to the microplates containing the test compounds (50 μL to each well). The well plates were sealed with an adhesive membrane and after 18 h of incubation at 37 °C with shaking at 600 rpm, the wells were visually inspected for bacterial growth. MIC values reported are based on three technical replicates and defined as the lowest concentration of the compound that prevented visible growth of bacteria.

Take `CCC(C)CCC(=O)N[C@H](CC(N)=O)C(=O)N[C@H](Cc1ccc(O)cc1)C(=O)N[C@H](Cc1c[nH]c2ccccc12)C(=O)N[C@H](CCCN)C(=O)N[C@@H](C)C(=O)NCC(=O)N[C@H](CCCN)C(=O)N[C@@H](Cc1c[nH]c2ccccc12)C(=O)N[C@H](C(=O)N[C@H](C(=O)NCC(=O)N[C@@H](CO)C(N)=O)[C@@H](C)CC)[C@@H](C)O` (stereo partly drawn) [LB(Ala5)-NH2 (21)] ({Hexanoyl(4ξ-Me)}-[dN][dY][dW][dOrn]AG[dOrn]WTIGS-NH2): the “MIC (µg/mL) against E. coli (ATCC 25922)” value is listed as more than 32 µg/mL. On to `CCC(C)CCC(=O)N[C@H](CC(N)=O)C(=O)N[C@H](Cc1ccc(O)cc1)C(=O)N[C@H](Cc1c[nH]c2ccccc12)C(=O)N[C@H](CCCN)C(=O)N[C@@H](CCCN)C(=O)NCC(=O)N[C@H](CCCN)C(=O)N[C@@H](C)C(=O)N[C@H](C(=O)N[C@H](C(=O)NCC(=O)N[C@@H](CO)C(N)=O)[C@@H](C)CC)[C@@H](C)O` (stereo partly drawn) [LB(Ala8)-NH2 (24)] ({Hexanoyl(4ξ-Me)}-[dN][dY][dW][dOrn][Orn]G[dOrn]ATIGS-NH2), for which the “MIC (µg/mL) against E. coli (ATCC 25922)” value is reported as more than 32 µg/mL. Turning to `CCC(C)CCC(=O)N[C@H](CC(N)=O)C(=O)N[C@H](Cc1ccc(O)cc1)C(=O)N[C@H](Cc1c[nH]c2ccccc12)C(=O)N[C@H](CCCN)C(=O)N[C@@H](CCCN)C(=O)NCC(=O)N[C@H](CCCN)C(=O)N[C@@H](Cc1c[nH]c2ccccc12)C(=O)N[C@H](C(=O)N[C@@H](C)C(=O)NCC(=O)N[C@@H](CO)C(N)=O)[C@@H](C)O` (stereo partly drawn) [LB(Ala10)-NH2 (26)] ({Hexanoyl(4ξ-Me)}-[dN][dY][dW][dOrn][Orn]G[dOrn]WTAGS-NH2), the “MIC (µg/mL) against E. coli (ATCC 25922)” value is given as more than 32 µg/mL.

For `CCC(C)CCC(=O)N[C@H](CC(N)=O)C(=O)N[C@H](C)C(=O)N[C@H](Cc1c[nH]c2ccccc12)C(=O)N[C@H](CCCN)C(=O)N[C@@H](CCCN)C(=O)NCC(=O)N[C@H](CCCN)C(=O)N[C@@H](Cc1c[nH]c2ccccc12)C(=O)N[C@H](C(=O)N[C@H](C(=O)NCC(=O)N[C@@H](CO)C(N)=O)[C@@H](C)CC)[C@@H](C)O` (stereo partly drawn) [LB(D-Ala2)-NH2 (18)] ({Hexanoyl(4ξ-Me)}-[dN][dA][dW][dOrn][Orn]G[dOrn]WTIGS-NH2), the “MIC (µg/mL) against E. coli (ATCC 25922)” value is recorded as more than 32 µg/mL. Regarding `CCC(C)CCC(=O)N[C@H](CC(N)=O)C(=O)N[C@H](Cc1ccc(O)cc1)C(=O)N[C@H](C)C(=O)N[C@H](CCCN)C(=O)N[C@@H](CCCN)C(=O)NCC(=O)N[C@H](CCCN)C(=O)N[C@@H](Cc1c[nH]c2ccccc12)C(=O)N[C@H](C(=O)N[C@H](C(=O)NCC(=O)N[C@@H](CO)C(N)=O)[C@@H](C)CC)[C@@H](C)O` (stereo partly drawn) [LB(D-Ala3)-NH2 (19)] ({Hexanoyl(4ξ-Me)}-[dN][dY][dA][dOrn][Orn]G[dOrn]WTIGS-NH2), the “MIC (µg/mL) against E. coli (ATCC 25922)” value is more than 32 µg/mL. Under `CCC(C)CCC(=O)N[C@H](CC(N)=O)C(=O)N[C@H](Cc1ccc(O)cc1)C(=O)N[C@H](Cc1c[nH]c2ccccc12)C(=O)N[C@H](CCCN)C(=O)N[C@@H](CCCN)C(=O)NCC(=O)N[C@H](C)C(=O)N[C@@H](Cc1c[nH]c2ccccc12)C(=O)N[C@H](C(=O)N[C@H](C(=O)NCC(=O)N[C@@H](CO)C(N)=O)[C@@H](C)CC)[C@@H](C)O` (stereo partly drawn) [LB(D-Ala7)-NH2 (23)] ({Hexanoyl(4ξ-Me)}-[dN][dY][dW][dOrn][Orn]G[dA]WTIGS-NH2) stands more than 32 µg/mL.

Values taken from PMC10150354, “Linearization of the Brevicidine and Laterocidine Lipopeptides Yields Analogues That Retain Full Antibacterial Activity” (Journal of Medicinal Chemistry, 2023).
